Active and inactive are the calls of the source. No cut-off for these calls is given here.
How the values were obtained:
[1] = test system: MDA-MB-231; experiment: Antiproliferative activity against human MDA-MB-231 cells assessed as cell growth inhibition incubated for 72 hrs by MTT assay; assay type: functional, cell-based; details: MDA-MB-231, 72 h
[2] = molecular target: T1, Protein cereblon/Histone-lysine N-methyltransferase EZH2 (Homo sapiens) (UniProt Q15910+Q96SW2); experiment: PROTAC activity at E3 ubiquitin ligase/EZH2 in human MDA-MB-468 cells assessed as induction of EZH2 degradation at 0.125 to 1 uM incubated for 48 hrs by western blot analysis; assay type: cell-based; details: dose 0.125-1 µM, DDE = dose-dependent effect
T1 sequence (Q15910 whole entry, looked up): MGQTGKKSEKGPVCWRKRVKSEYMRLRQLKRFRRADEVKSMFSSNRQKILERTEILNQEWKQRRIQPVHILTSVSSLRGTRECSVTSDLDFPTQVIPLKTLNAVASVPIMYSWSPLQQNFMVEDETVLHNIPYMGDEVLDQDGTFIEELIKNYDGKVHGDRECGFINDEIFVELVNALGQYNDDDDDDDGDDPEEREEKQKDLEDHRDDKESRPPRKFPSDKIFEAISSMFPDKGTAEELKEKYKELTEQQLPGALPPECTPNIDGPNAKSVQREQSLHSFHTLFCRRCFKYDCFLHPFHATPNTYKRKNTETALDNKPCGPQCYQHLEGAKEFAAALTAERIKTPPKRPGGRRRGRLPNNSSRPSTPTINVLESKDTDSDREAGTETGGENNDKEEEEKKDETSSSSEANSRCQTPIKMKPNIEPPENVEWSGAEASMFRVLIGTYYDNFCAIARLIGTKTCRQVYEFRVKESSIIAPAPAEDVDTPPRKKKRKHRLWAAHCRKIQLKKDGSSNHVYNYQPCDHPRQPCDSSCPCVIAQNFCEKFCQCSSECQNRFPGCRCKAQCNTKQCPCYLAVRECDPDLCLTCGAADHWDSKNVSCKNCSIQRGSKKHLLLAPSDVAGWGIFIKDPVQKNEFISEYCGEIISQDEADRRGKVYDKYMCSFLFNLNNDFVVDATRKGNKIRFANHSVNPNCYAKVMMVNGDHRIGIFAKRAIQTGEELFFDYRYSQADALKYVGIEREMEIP
T1 sequence (Q96SW2 whole entry, looked up): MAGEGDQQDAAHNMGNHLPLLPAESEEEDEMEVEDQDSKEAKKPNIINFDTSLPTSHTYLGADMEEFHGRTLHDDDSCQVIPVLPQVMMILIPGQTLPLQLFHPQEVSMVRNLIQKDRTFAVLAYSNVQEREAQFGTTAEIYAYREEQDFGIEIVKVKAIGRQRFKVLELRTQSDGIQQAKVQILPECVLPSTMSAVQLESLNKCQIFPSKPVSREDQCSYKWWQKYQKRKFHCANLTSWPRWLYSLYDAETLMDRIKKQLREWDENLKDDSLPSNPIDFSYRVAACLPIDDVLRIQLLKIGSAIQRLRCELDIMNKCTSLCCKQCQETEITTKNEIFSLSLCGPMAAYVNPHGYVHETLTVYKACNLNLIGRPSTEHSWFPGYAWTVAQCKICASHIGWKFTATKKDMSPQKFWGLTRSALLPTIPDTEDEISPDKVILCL

[3] = test system: MDA-MB-468; experiment: Antiproliferative activity against human MDA-MB-468 cells assessed as reduction in EdU positive cells at 0.25 to 0.75 uM incubated for 48 hrs by EdU incorporation assay; assay type: functional, cell-based; details: dose 0.25-0.75 µM
[4] = molecular target: T1, Protein cereblon/Histone-lysine N-methyltransferase EZH2 (Homo sapiens); experiment: PROTAC activity at E3 ubiquitin ligase/EZH2 in human MDA-MB-231 cells assessed as induction of SUZ12 degradation at 0.125 to 1 uM incubated for 48 hrs by western blot analysis; assay type: cell-based; details: dose 0.125-1 µM, DDE = dose-dependent effect
[5] = molecular target: T1, Protein cereblon/Histone-lysine N-methyltransferase EZH2 (Homo sapiens); experiment: PROTAC activity at E3 ubiquitin ligase/EZH2 in human MDA-MB-468 cells assessed as reduction on EED expression at 0.75 uM incubated for 24 hrs by proteomic analysis; assay type: cell-based
[6] = test system: BT-549; experiment: Antiproliferative activity against human BT-549 cells assessed as cell growth inhibition incubated for 72 hrs by MTT assay; assay type: functional, cell-based; details: BT-549, 72 h
[7] = test system: MDA-MB-468; experiment: Induction of apoptosis in human MDA-MB-468 cells assessed as increase in reduction in mitochondrial membrane potential at 0.25 to 0.75 uM incubated for 48 hrs by JC-1 staining based flow cytometry analysis; assay type: functional, cell-based; details: dose 0.25-0.75 µM
[8] = test system: MDA-MB-468; experiment: Induction of apoptosis in human MDA-MB-468 cells assessed as increase in Bax expression at 0.25 to 0.75 uM incubated for 48 hrs by western blot analysis; assay type: functional, cell-based; details: dose 0.25-0.75 µM
[9] = test system: MDA-MB-468; experiment: Antiproliferative activity against human MDA-MB-468 cells assessed as colony growth inhibition at 0.25 to 0.75 uM incubated for 48 hrs by crystal violet staining method; assay type: functional, cell-based; details: dose 0.25-0.75 µM
[10] = test system: HL-60; experiment: Antiproliferative activity against human HL-60 cells assessed as cell growth inhibition incubated for 72 hrs by MTT assay; assay type: functional, cell-based; details: HL-60, 72 h
[11] = test system: MDA-MB-468; experiment: Induction of apoptosis in human MDA-MB-468 cells assessed as increase in apoptotic cells at 0.25 to 0.75 uM incubated for 48 hrs by Annexin V-PE and 7AAD staining based flow cytometry; assay type: functional, cell-based; details: dose 0.25-0.75 µM
[12] = molecular target: T1, Protein cereblon/Histone-lysine N-methyltransferase EZH2 (Homo sapiens); experiment: PROTAC activity at E3 ubiquitin ligase/EZH2 in human MDA-MB-468 cells assessed as induction of EZH2 degradation at 1 uM incubated for 48 hrs by western blot analysis; assay type: cell-based
[13] = test system: MDA-MB-468; experiment: Induction of apoptosis in human MDA-MB-468 cells assessed as increase in cleaved caspase-3 expression at 0.25 to 0.75 uM incubated for 48 hrs by western blot analysis; assay type: functional, cell-based; details: dose 0.25-0.75 µM
[14] = Antiproliferative activity against human HK-2 cells assessed as cell growth inhibition incubated for 72 hrs by MTT assay; assay type: toxicity, cell-based
[15] = molecular target: T1, Protein cereblon/Histone-lysine N-methyltransferase EZH2 (Homo sapiens); experiment: PROTAC activity at E3 ubiquitin ligase/EZH2 in human MDA-MB-468 cells assessed as induction of EED degradation at 0.125 to 1 uM incubated for 48 hrs by western blot analysis; assay type: cell-based; details: dose 0.125-1 µM, DDE = dose-dependent effect
[16] = molecular target: T1, Protein cereblon/Histone-lysine N-methyltransferase EZH2 (Homo sapiens); experiment: PROTAC activity at E3 ubiquitin ligase/EZH2 in human MDA-MB-468 cells assessed as induction of SUZ12 degradation at 0.125 to 1 uM incubated for 48 hrs by western blot analysis; assay type: cell-based; details: dose 0.125-1 µM, DDE = dose-dependent effect
[17] = test system: MV4-11; experiment: Antiproliferative activity against human MV4-11 cells assessed as cell growth inhibition incubated for 72 hrs by MTT assay; assay type: functional, cell-based; details: MV4-11, 72 h
[18] = molecular target: T1, Protein cereblon/Histone-lysine N-methyltransferase EZH2 (Homo sapiens); experiment: PROTAC activity at E3 ubiquitin ligase/EZH2 in human MDA-MB-468 cells assessed as decrease in CARM1 expression at 0.25 to 0.75 uM incubated for 48 hrs by western blot analysis; assay type: cell-based; details: dose 0.25-0.75 µM
[19] = molecular target: T1, Protein cereblon/Histone-lysine N-methyltransferase EZH2 (Homo sapiens); experiment: PROTAC activity at E3 ubiquitin ligase/EZH2 in human MDA-MB-468 cells assessed as reduction on SUZ12 expression at 0.75 uM incubated for 24 hrs by proteomic analysis; assay type: cell-based
[20] = test system: MDA-MB-231; experiment: Antiproliferative activity against human MDA-MB-231 cells assessed as colony growth inhibition at 0.25 to 0.75 uM incubated for 48 hrs by crystal violet staining method; assay type: functional, cell-based; details: dose 0.25-0.75 µM
[21] = Antiproliferative activity against human MCF-10A cells assessed as cell growth inhibition incubated for 72 hrs by MTT assay; assay type: toxicity, cell-based
[22] = Binding affinity to recombinant PRC2 complex (unknown origin) assessed as dissociation rate constant by surface plasmon resonance assay; parameters: species or system Homo sapiens
[23] = test system: MDA-MB-231; experiment: Induction of apoptosis in human MDA-MB-231 cells assessed as increase in apoptotic cells at 0.25 to 0.75 uM incubated for 48 hrs by Annexin V-PE and 7AAD staining based flow cytometry; assay type: functional, cell-based; details: dose 0.25-0.75 µM
[24] = molecular target: T1, Protein cereblon/Histone-lysine N-methyltransferase EZH2 (Homo sapiens); experiment: PROTAC activity at E3 ubiquitin ligase/EZH2 in human MDA-MB-231 cells assessed as induction of EZH2 degradation at 0.125 to 1 uM incubated for 48 hrs by western blot analysis; assay type: cell-based; details: dose 0.125-1 µM, DDE = dose-dependent effect
[25] = molecular target: T1, Protein cereblon/Histone-lysine N-methyltransferase EZH2 (Homo sapiens); experiment: PROTAC activity at E3 ubiquitin ligase/EZH2 in human MDA-MB-468 cells assessed as decrease in H3K27me3 expression at 0.25 to 0.75 uM incubated for 48 hrs by western blot analysis; assay type: cell-based; details: dose 0.25-0.75 µM
[26] = test system: MDA-MB-468; experiment: Induction of apoptosis in human MDA-MB-468 cells assessed as increase in PARP expression at 0.25 to 0.75 uM incubated for 48 hrs by western blot analysis; assay type: functional, cell-based; details: dose 0.25-0.75 µM
[27] = molecular target: T1, Protein cereblon/Histone-lysine N-methyltransferase EZH2 (Homo sapiens); experiment: PROTAC activity at E3 ubiquitin ligase/EZH2 in human MDA-MB-231 cells assessed as induction of EED degradation at 0.125 to 1 uM incubated for 48 hrs by western blot analysis; assay type: cell-based; details: dose 0.125-1 µM, DDE = dose-dependent effect
[28] = molecular target: T1, Protein cereblon/Histone-lysine N-methyltransferase EZH2 (Homo sapiens); experiment: PROTAC activity at E3 ubiquitin ligase/EZH2 in human MDA-MB-468 cells assessed as reduction on EZH2 expression at 0.75 uM incubated for 24 hrs by proteomic analysis; assay type: cell-based
[29] = Binding affinity to recombinant PRC2 complex (unknown origin) assessed as Equilibrium dissociation constant by surface plasmon resonance assay; parameters: species or system Homo sapiens
[30] = species: Homo sapiens; experiment: Binding affinity to recombinant PRC2 complex (unknown origin) assessed as association rate constant by surface plasmon resonance assay
[31] = molecular target: T1, Protein cereblon/Histone-lysine N-methyltransferase EZH2 (Homo sapiens); experiment: PROTAC activity at E3 ubiquitin ligase/EZH2 in human MDA-MB-468 cells assessed as induction of EZH2 degradation at 1 uM incubated for 12 to 48 hrs by western blot analysis; assay type: cell-based; details: time 12-48 hrs
[32] = test system: MDA-MB-468; experiment: Antiproliferative activity against human MDA-MB-468 cells assessed as cell growth inhibition incubated for 72 hrs by MTT assay; assay type: functional, cell-based; details: MDA-MB-468, 72 h
[33] = test system: MDA-MB-231; experiment: Induction of apoptosis in human MDA-MB-231 cells assessed as increase in reduction in mitochondrial membrane potential at 0.25 to 0.75 uM incubated for 48 hrs by JC-1 staining based flow cytometry analysis; assay type: functional, cell-based; details: dose 0.25-0.75 µM
[34] = Antiproliferative activity against human L02 cells assessed as cell growth inhibition incubated for 72 hrs by MTT assay; assay type: toxicity, cell-based
[35] = molecular target: T1, Protein cereblon/Histone-lysine N-methyltransferase EZH2 (Homo sapiens); experiment: PROTAC activity at E3 ubiquitin ligase/EZH2 in human MDA-MB-468 cells assessed as increase in EZH1 expression at 0.25 to 0.75 uM incubated for 48 hrs by western blot analysis; assay type: cell-based; details: dose 0.25-0.75 µM
[36] = test system: MCF7; experiment: Antiproliferative activity against human MCF7 cells assessed as cell growth inhibition incubated for 72 hrs by MTT assay; assay type: functional, cell-based; details: MCF7, 72 h
[37] = test system: MDA-MB-468; experiment: Induction of apoptosis in human MDA-MB-468 cells assessed as decrease in Bcl-2 expression at 0.25 to 0.75 uM incubated for 48 hrs by western blot analysis; assay type: functional, cell-based; details: dose 0.25-0.75 µM

In the case of `Cc1cc(C)c(CNC(=O)c2cc(-c3ccc(N4CCN(C(=O)CCCCCCCCc5cn(CCOCCOCCOCCOCCOCCOCCNc6cccc7c6C(=O)N(C6CCC(=O)NC6=O)C7=O)nn5)CC4)nc3)cc3c2cnn3C(C)C)c(=O)[nH]1` (configuration not stated), the IC50 [1] is reported as 570 nM, the Activity [2] is reported as “Dde” and the Activity [3] is reported as “Active”. The Activity [4] was “Dde”, the Activity [5] was “Active” and the IC50 [6] was 400 nM. The Activity [7] was “Active”, the Activity [8] was “Active” and the Activity [9] was “Active”. The IC50 [10] was 1080 nM, the Activity [11] was “Active” and the Activity [12] was “Active”. The Activity [13] was “Active”, the IC50 at 72 h [14] was greater than 40000 nM and the Activity [15] was “Dde”. For the same compound, the Activity [16] was “Dde”, the IC50 [17] was 740 nM and the Activity [18] was “Active”. The Activity [19] was “Active”, the Activity [20] was “Active” and the IC50 at 72 h [21] was greater than 40000 nM. The koff [22] was 0.09231 s⁻¹, the Activity [23] was “Active” and the Activity [24] was “Dde”. The Activity [25] was “Active”, the Activity [26] was “Active” and the Activity [27] was “Dde”. The Activity [28] was “Active”, the Kd [29] was 16.2 nM and the Ka [30] was 5.7 10^6/Ms. The Activity [31] was “Active”, the IC50 [32] was 380 nM and the Activity [33] was “Active”. For the same compound, the IC50 at 72 h [34] was greater than 40000 nM, the Activity [35] was “Active” and the IC50 [36] was 18000 nM. The Activity [37] was “Active”.
